Results published in paper PMC9000625, “Target Design of Novel Histone Deacetylase 6 Selective Inhibitors with 2-Mercaptoquinazolinone as the Cap Moiety” (Molecules, 2022).
Several values for one entry are separate records, joined by “and”; a condition that tells them apart may be missing. Identical values can stand only once. Like-named read-outs stand apart in the source and are kept apart here. One block for each compound: values may come before it.

Legend:
MCF-7 cells = assay: Antiproliferative assay (CELLOMAX viability), MCF-7; format: cell-based, human; conditions: for IC50 / Emax: MCF-7, 48 h; for IC50: read-out: IC50 (µM), antiproliferative activity against MCF-7; for Emax: MCF7, highest concentration 250 µM, read-out: Imax (%)
Procedure: The MCF-7 cell line was obtained from Korean Cell Line Bank (KCLB, Seoul, Korea). The cells were cultured in vitro in DMEM (Invitrogen, Paisley, UK) containing 10% fetal bovine serum (Gibco, Thermo Fisher Scientific, Waltham, MA, USA) and 1% penicillin. Cells were treated with different concentrations of compounds (1–15) in a 1:3 the highest concentration was 250 µM (before dilution) and further incubated for 48 hrs. […] We evaluated the antiproliferative activity of compound 8 against a variety of cells.
The MCF-7 cell line was obtained from ATCC. The cells were cultured in vitro in DMEM (Invitrogen, Paisley, UK) containing 10% fetal bovine serum (Gibco, Thermo Fisher Scientific, Waltham, MA) and 1% penicillin. For cytotoxicity assays, MCF-7 cells were seeded into 96-well culture plates at […] in 0.1 mL of DMEM and incubated at 37 °C with 5% CO2 and 90% humidity. After 16 h, the cells were treated with drugs (250 μM, serially diluted up to three-fold) for 48 h. Cell viability was measured using the CELLOMAXTM Viability Assay kit (Precaregene Co., Seoul, Korea). UV absorption at 450 nm wavelength was measured using an Infinite M200 microplate reader (Tecan, Zürich, Switzerland). The IC50 values were calculated using Prism v7.0 (GraphPad Software Inc., La Jolla, CA). The inhibitory activity of the tested compounds was evaluated by an 8-point dose–response curve (DRC) analysis in triplicates.

HDAC4 = target: T1, HDAC4 (Homo sapiens, UniProt P56524); assay: HDAC enzyme inhibition assay, HDAC4; format: biochemical; conditions: read-out: IC50 (µM) HDAC4 (Class IIa)
T1 construct: purchased PBS Biosciences [sic]

HDAC6 = target: T2, HDAC6 (Homo sapiens, UniProt Q9UBN7); assay: HDAC enzyme inhibition assay, HDAC6; format: biochemical
T2 construct: purchased PBS Biosciences [sic]
T2 sequence (Q9UBN7 1-1215): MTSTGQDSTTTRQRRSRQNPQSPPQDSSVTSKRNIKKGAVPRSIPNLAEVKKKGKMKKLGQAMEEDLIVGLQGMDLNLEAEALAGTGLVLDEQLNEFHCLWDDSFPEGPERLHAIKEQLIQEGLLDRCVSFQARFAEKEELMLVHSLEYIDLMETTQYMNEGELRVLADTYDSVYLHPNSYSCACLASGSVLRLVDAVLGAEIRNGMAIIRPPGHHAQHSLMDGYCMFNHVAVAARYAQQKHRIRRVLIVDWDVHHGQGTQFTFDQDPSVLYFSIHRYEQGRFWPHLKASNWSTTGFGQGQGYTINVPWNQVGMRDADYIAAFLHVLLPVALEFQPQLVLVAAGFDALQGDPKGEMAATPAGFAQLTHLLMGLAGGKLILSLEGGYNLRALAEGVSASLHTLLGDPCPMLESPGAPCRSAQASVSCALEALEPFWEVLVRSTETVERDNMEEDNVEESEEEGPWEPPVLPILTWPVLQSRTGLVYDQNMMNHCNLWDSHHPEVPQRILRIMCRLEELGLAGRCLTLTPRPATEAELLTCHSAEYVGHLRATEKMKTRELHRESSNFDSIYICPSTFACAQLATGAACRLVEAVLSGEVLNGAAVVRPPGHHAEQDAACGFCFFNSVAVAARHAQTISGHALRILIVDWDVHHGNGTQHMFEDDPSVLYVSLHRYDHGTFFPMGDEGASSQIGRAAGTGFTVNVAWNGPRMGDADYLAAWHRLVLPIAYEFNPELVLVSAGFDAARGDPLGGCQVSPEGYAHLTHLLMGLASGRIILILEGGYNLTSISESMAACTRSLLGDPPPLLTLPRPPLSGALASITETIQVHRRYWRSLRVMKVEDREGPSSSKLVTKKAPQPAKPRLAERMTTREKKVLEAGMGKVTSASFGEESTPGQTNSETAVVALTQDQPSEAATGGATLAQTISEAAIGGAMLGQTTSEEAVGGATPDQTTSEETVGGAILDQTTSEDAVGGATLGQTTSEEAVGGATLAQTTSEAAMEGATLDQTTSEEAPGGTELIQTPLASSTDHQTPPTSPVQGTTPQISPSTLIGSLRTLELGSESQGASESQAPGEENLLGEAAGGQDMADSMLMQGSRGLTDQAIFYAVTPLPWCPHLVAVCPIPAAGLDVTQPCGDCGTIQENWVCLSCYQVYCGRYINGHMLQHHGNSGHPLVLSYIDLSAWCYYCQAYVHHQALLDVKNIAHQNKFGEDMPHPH
Procedure: (§1) The compounds were diluted to the indicated concentrations and mixed with HDAC enzymes (HDAC1, HDAC3, HDAC6, HDAC8, HDAC11) and the substrate for 1 h (PBS Biosciences). The fluorescence intensity was measured according to the manufacturer’s instructions.

MDA-MB 231 cells = assay: Antiproliferation, MDA-MB 231; format: cell-based; conditions: Homo sapiens, Breast
EMT 6 cells = assay: Antiproliferation, EMT 6; format: cell-based; conditions: Mus musculus, EMT6; Breast
N2A cells = assay: Antiproliferation, N2A; format: cell-based; conditions: Mus musculus, Brain
Hepa1c1c7 cells = assay: Antiproliferation, Hepa1c1c7; format: cell-based; conditions: Hepa-1c1c7; Liver
SKOV3 cells = assay: Antiproliferation, SKOV3; format: cell-based; conditions: Homo sapiens, SK-OV-3; Ovarian
SW620 cells = assay: Antiproliferation, SW620; format: cell-based; conditions: Homo sapiens, SW-620; Colon
PANC1 cells = assay: Antiproliferation, PANC1; format: cell-based; conditions: Homo sapiens, PANC-1; Pancreas
HDAC3 = target: T3, HDAC3 (Homo sapiens, UniProt O15379); assay: HDAC enzyme inhibition assay, HDAC3; format: biochemical; conditions: read-out: IC50 (µM) HDAC3 (Class I)
T3 construct: purchased PBS Biosciences [sic]
Procedure: as §1

HDAC8 = target: T4, HDAC8 (Homo sapiens, UniProt Q9BY41); assay: HDAC enzyme inhibition assay, HDAC8; format: biochemical; conditions: read-out: IC50 (µM) HDAC8 (Class I)
T4 construct: purchased PBS Biosciences [sic]
T4 sequence (Q9BY41 1-377): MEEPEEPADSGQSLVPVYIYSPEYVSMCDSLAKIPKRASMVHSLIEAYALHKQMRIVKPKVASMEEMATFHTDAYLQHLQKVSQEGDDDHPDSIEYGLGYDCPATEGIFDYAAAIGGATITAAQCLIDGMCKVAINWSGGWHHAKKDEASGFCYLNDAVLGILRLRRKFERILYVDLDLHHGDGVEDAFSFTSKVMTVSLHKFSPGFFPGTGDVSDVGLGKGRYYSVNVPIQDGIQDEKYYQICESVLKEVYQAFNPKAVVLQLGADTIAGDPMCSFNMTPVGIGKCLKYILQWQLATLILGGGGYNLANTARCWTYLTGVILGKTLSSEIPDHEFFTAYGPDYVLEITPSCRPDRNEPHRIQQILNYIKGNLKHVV
Procedure: as §1

HDAC11 = target: T5, HDAC11 (Homo sapiens, UniProt Q96DB2); assay: HDAC enzyme inhibition assay, HDAC11; format: biochemical
T5 construct: purchased PBS Biosciences [sic]
T5 sequence (Q96DB2 1-347): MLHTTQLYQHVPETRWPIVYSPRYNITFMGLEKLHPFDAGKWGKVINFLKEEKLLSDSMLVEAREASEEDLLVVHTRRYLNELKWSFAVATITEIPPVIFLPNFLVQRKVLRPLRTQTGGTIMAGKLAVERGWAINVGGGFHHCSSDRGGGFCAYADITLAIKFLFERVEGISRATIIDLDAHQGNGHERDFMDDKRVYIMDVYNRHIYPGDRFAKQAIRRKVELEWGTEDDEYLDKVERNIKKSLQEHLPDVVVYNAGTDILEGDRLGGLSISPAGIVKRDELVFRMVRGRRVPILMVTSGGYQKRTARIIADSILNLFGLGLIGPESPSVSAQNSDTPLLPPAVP
Procedure: as §1

[1] = tested on: acetylated tubulin (HDAC6 substrate) in MCF-7 cells; assay: Western blot of acetylated tubulin in MCF-7; format: cell-based, human
Procedure: (§2) MCF-7 and N2a cell lines were incubated with various concentrations of test agents for 6 h. Cell lysis and Western blot analyses were performed as previously described. Anti-acetylated tubulin antibody and horseradish peroxidase (HRP)-conjugated secondary antibodies (Santa Cruz Biotechnology) were used. Immunoreactive bands were visualized using enhanced chemiluminescence (Millipore, Burlington, MA, USA).
(§3) GAPDH was used as a loading control.

[2] = tested on: acetylated tubulin (HDAC6 substrate) in N2a cells; assay: Western blot of acetylated tubulin in N2a; format: cell-based; conditions: 6 h, 10, 2, and 0.2 µM
Procedure: as §2, §3

T1 sequence (P56524 whole entry): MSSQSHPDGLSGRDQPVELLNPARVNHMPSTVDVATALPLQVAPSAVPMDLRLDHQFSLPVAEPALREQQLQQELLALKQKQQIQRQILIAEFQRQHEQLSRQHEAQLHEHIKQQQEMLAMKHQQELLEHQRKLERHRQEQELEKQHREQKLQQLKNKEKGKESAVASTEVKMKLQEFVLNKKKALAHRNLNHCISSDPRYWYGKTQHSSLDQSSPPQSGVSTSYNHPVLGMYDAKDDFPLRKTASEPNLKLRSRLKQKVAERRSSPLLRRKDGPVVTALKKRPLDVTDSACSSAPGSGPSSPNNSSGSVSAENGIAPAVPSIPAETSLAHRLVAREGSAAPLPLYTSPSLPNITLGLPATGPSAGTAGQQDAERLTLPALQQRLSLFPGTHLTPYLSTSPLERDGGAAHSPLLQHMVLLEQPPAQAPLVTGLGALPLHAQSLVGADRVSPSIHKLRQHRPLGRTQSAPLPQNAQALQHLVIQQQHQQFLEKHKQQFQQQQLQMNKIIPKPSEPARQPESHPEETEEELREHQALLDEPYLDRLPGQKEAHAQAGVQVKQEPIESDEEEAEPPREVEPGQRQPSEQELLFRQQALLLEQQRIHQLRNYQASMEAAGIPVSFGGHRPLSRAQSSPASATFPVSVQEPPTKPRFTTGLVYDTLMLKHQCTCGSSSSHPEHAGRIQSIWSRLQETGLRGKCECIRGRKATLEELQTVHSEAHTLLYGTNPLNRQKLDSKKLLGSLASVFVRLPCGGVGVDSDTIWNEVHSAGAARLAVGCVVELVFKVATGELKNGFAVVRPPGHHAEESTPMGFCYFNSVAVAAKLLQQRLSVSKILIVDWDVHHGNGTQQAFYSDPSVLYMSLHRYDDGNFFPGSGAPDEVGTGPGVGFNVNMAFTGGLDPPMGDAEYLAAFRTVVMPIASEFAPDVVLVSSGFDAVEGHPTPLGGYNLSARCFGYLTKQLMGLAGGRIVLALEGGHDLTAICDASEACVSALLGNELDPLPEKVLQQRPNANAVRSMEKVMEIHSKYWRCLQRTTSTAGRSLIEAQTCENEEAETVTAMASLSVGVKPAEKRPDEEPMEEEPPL
T3 sequence (O15379 whole entry): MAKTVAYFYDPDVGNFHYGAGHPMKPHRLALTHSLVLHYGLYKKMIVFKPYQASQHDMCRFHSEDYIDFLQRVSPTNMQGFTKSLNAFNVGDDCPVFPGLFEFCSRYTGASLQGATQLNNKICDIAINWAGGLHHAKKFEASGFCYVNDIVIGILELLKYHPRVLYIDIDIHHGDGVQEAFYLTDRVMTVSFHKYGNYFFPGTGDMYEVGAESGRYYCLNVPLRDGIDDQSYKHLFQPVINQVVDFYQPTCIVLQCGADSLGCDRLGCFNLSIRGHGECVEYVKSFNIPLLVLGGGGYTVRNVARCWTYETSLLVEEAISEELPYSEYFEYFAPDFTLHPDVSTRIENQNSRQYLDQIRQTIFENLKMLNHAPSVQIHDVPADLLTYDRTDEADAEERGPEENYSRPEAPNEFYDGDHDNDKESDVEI
T3 sequence (Q9Y618 395-489 partner limits assumed): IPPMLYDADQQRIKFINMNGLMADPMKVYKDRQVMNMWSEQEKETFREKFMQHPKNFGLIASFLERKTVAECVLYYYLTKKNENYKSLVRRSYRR

melting point: 177 to 180 °C
SMILES: O=C(CSc1nc2ccccc2c(=O)n1Cc1cccc(F)c1)NO [Compound 3]
Emax (MCF-7 cells; Homo sapiens): 24%

melting point: 184 to 186 °C
SMILES: O=C(CSc1nc2ccccc2c(=O)n1Cc1ccc(F)c(F)c1)NO [Compound 4]
Emax (MCF-7 cells; Homo sapiens): 23%

melting point: 184 to 186 °C
SMILES: Cc1ccc(Cn2c(SCC(=O)NO)nc3ccccc3c2=O)cc1 [Compound 6]
Emax (MCF-7 cells; Homo sapiens): 22%

IC50 (MCF-7 cells; Homo sapiens, MCF7, 48 h): 3.4 µM
IC50 (MCF-7 cells): 3.44 ± 1.11 µM
IC50 (HDAC3): 2.7 ± 0.08 µM
IC50 (HDAC8): 0.8 ± 0.01 µM
IC50 (HDAC4): > 10 µM
Selective Fold (Ratio) HDAC3/ HDAC6 (HDAC6; ratio of IC50): 7.9 fold and 7.94 fold
Selective Fold (Ratio) HDAC4/ HDAC6 (HDAC6; ratio of IC50): >29.4 fold
Selective Fold (Ratio) HDAC8/ HDAC6 (HDAC6; ratio of IC50): 2.3 fold and 2.32 fold
Selective Fold (Ratio) HDAC11/ HDAC6 (HDAC6; ratio of IC50): >29.4 fold
IC50 (HDAC6; read-out: IC50 (µM) HDAC6 (Class IIb)): 2.3 µM and 0.3 µM
IC50 (HDAC11; read-out: IC50 (µM) HDAC11 (Class IV)): ~3 µM
IC50 (MDA-MB 231 cells): 0.51 ± 0.02 µM
IC50 (SKOV3 cells): 4.5 ± 0.1 µM
IC50 (SW620 cells): 0.81 ± 0.01 µM
IC50 (PANC1 cells): 12.8 ± 0.75 µM
melting point: 138 to 140 °C
SMILES: O=C(CCCCSc1nc2ccccc2c(=O)n1Cc1ccc(F)cc1)NO [Compound 8]
Emax (MCF-7 cells; Homo sapiens): 90.6%
HDAC11 inhibition compared to Belinostat (in words) (HDAC11; dose-dependent): higher activity against HDAC11 compared to the reference
acetylation level of tubulin (Western blot) at 10 µM ([1]; 10 µM, cell line not named): increased acetylation level of tubulin
acetylation of tubulin (Western blot) ([1]; MCF-7, 6 h, 10, 2, and 0.2 µM): induced acetylated tubulin levels in a dose-dependent manner
acetylation of tubulin (Western blot) [2]: induced acetylated tubulin levels in a dose-dependent manner
IC50 (EMT 6 cells): 1.3 ± 0.3 µM
IC50 (N2A cells): 3.2 ± 0.1 µM
IC50 (Hepa1c1c7 cells): 1.3 ± 0.2 µM

melting point: 120 to 122 °C
SMILES: O=C(CN1CCN(CCn2c(-c3ccc(F)cc3)nc3ccccc3c2=O)CC1)NO [Compound 11]

IC50 (MCF-7 cells; Homo sapiens, MCF7, 48 h): 37.3 ± 1.21 µM
melting point: 173 to 175 °C
SMILES: COc1ccc(-c2nc3ccccc3c(=O)n2CCCCC(=O)NO)cc1 [Compound 13]
Emax (MCF-7 cells; Homo sapiens): 95.8%

IC50 (MCF-7 cells; Homo sapiens, MCF7, 48 h): 37.9 ± 1.71 µM
melting point: 156 to 158 °C
SMILES: O=C(CCCCn1c(-c2ccc(F)cc2)nc2ccccc2c1=O)NO [Compound 14]
Emax (MCF-7 cells; Homo sapiens): 100%

melting point: 195 to 197 °C
SMILES: O=C(CCCCn1c(-c2ccco2)nc2ccccc2c1=O)NO [Compound 15]
Emax (MCF-7 cells; Homo sapiens): 1.5%

The next lines start with the compound.

SMILES: O=C(/C=C/c1cccc(S(=O)(=O)Nc2ccccc2)c1)NO [Belinostat, reference compound]
IC50 (MCF-7 cells; Homo sapiens, MCF7, 48 h): 2.6 ± 1.4 µM
Emax (MCF-7 cells; Homo sapiens): 100%
IC50 (HDAC4): 2.7 ± 0.12 µM
IC50 (HDAC6; IC50 (µM) HDAC6 (Class IIb)): 0.2 ± 0.01 µM
IC50 (MDA-MB 231 cells): 3.72 ± 0.5 µM
IC50 (EMT 6 cells): 11.3 ± 2.6 µM
IC50 (N2A cells): 3.66 ± 0.7 µM
IC50 (Hepa1c1c7 cells): 10.1 ± 0.9 µM
IC50 (SKOV3 cells): 32.1 ± 5.5 µM
IC50 (SW620 cells): 14.9 ± 1.2 µM
IC50 (PANC1 cells): 15.7 ± 2.3 µM

SMILES: O=C(CSc1nc2ccccc2c(=O)n1Cc1ccccc1)NO [Compound 1]
Emax (MCF-7 cells; Homo sapiens): 20%
melting point: 188 to 191 °C

SMILES: O=C(CSc1nc2ccccc2c(=O)n1Cc1ccc(F)cc1)NO [Compound 2]
Emax (MCF-7 cells; Homo sapiens): 11%

SMILES: O=C(CSc1nc2ccccc2c(=O)n1Cc1ccccc1[N+](=O)[O-])NO [Compound 5]
Emax (MCF-7 cells; Homo sapiens): 17%
melting point: 176 to 179 °C

SMILES: O=C(CCCCSc1nc2ccccc2c(=O)n1Cc1cccc(F)c1)NO [Compound 9]
IC50 (MCF-7 cells; Homo sapiens, MCF7, 48 h): 36.9 ± 1.12 µM
Emax (MCF-7 cells; Homo sapiens): 96.8%
antiproliferative activity (in words) (MCF-7 cells; MCF-7): loss of activity
melting point: 145 to 147 °C

SMILES: O=C(CCCCSc1nc2ccccc2c(=O)n1Cc1ccc(-c2ccccc2)cc1)NO [Compound 10]
IC50 (MCF-7 cells; Homo sapiens, MCF7, 48 h): 14.2 ± 1.14 µM
Emax (MCF-7 cells; Homo sapiens): 89.7%
melting point: 180 to 182 °C
